Source: patent US12059422B2 (MEI Pharma, Inc., priority 2011, dated 2024)

Experiments:
[1] = target: T1, PI3K gamma (Homo sapiens, UniProt P48736); test: Luciferase-based luminescence assay (ADP Glo), PI3K gamma enzymatic activity; type: biochemical; details: inhibition of enzymatic activity, 25 μM ATP, read-out: IC50 p110γ
T1 construct: purchased Invitrogen Corp., Carlsbad, CA, USA
Method: (§1) PI3K catalyzes the conversion of phosphatidylinositol-4,5-bisphosphate (PIP2) and ATP to phosphatidylinositol-3,4,5-trisphosphate (PIP3) and ADP. For all assays, the reaction buffer comprised 50 mM HEPES, pH 7.5, 3 mM MgCl2, 1 mM EGTA, 100 mM NaCl, 0.03% CHAPS and 2 mM DTT. Compounds for testing were dissolved and serially diluted in 100% DMSO (total of 10 concentrations), then diluted 1:25 in reaction buffer.
PI3K beta and gamma enzymatic activity was determined by measuring the amount of ADP produced following the kinase reaction using a luciferase-based luminescence assay (ADP Glo®, Promega Corp., Madison, WI, USA). PI3K enzyme solutions were prepared by diluting PI3K beta (Millipore, Billerica, MA, USA) or PI3K gamma (Invitrogen Corp., Carlsbad, CA, USA) in reaction buffer, to 4× the final assay concentration (final concentrations of enzymes were 4.8 nM and 7.6 nM for PI3K beta and PI3K gamma respectively). A substrate solution was prepared by mixing PIP2 and ATP in reaction buffer at 2× the final assay concentration (final concentrations were 50 μM and 25 μM for PIP2 and ATP respectively). 2.5 μL each of the compound and kinase mixtures were added to individual wells of white low volume 384-well assay plates and mixed by shaking. The reactions were started by adding 5 μL of substrate mixture per well and shaking. The assay plates were covered and reactions were allowed to proceed for 1 hour. Then, 5 μL of reaction mix was transferred to another white low volume 384-well plate, and 5 μL of ADP-Glo™ reagent was added. The plates were briefly centrifuged and incubated for 40 minutes, after which 10 μL of kinase detection buffer was added. The plates then were centrifuged briefly, shaken slowly and equilibrated at room temperature for 30 minutes, after which luminescence was measured using a FlexStation plate reader (Molecular Devices, Sunnyvale, CA, USA). IC50 values were determined by curve fitting using Graphpad Prism software (Graphpad Software, La Jolla, CA, USA).

[2] = target: PI3Kα (Homo sapiens, UniProt P42336); test: ELISA assay for PI3Kα: in-cell ELISA, phosphorylation of AKT (Thr308) in MDA-MB-453 cells; type: cell-based; details: cellular, pAKT (Thr308), IGF-1 stimulation, read-out: IC50 p110α
Chain of PI3Kα (P27986 2-724): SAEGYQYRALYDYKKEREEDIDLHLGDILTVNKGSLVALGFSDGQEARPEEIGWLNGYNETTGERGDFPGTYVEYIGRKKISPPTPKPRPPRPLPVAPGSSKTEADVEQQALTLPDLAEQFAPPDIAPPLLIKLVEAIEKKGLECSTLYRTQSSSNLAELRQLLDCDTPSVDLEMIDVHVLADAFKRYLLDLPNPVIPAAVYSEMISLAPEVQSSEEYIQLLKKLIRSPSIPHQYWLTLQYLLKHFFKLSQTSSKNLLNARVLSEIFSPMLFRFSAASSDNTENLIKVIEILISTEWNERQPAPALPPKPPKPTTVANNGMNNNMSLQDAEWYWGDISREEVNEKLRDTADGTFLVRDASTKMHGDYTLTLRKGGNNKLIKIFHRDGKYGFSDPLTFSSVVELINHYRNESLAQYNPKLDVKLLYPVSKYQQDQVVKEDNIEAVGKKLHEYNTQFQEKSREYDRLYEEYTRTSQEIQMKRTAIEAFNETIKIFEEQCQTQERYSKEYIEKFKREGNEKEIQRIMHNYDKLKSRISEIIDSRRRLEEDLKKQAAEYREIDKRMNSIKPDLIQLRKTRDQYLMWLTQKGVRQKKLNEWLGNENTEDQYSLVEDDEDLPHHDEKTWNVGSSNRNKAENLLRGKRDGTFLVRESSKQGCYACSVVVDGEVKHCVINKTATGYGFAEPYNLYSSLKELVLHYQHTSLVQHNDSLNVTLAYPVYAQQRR
Chain of PI3Kα (P42336 whole entry): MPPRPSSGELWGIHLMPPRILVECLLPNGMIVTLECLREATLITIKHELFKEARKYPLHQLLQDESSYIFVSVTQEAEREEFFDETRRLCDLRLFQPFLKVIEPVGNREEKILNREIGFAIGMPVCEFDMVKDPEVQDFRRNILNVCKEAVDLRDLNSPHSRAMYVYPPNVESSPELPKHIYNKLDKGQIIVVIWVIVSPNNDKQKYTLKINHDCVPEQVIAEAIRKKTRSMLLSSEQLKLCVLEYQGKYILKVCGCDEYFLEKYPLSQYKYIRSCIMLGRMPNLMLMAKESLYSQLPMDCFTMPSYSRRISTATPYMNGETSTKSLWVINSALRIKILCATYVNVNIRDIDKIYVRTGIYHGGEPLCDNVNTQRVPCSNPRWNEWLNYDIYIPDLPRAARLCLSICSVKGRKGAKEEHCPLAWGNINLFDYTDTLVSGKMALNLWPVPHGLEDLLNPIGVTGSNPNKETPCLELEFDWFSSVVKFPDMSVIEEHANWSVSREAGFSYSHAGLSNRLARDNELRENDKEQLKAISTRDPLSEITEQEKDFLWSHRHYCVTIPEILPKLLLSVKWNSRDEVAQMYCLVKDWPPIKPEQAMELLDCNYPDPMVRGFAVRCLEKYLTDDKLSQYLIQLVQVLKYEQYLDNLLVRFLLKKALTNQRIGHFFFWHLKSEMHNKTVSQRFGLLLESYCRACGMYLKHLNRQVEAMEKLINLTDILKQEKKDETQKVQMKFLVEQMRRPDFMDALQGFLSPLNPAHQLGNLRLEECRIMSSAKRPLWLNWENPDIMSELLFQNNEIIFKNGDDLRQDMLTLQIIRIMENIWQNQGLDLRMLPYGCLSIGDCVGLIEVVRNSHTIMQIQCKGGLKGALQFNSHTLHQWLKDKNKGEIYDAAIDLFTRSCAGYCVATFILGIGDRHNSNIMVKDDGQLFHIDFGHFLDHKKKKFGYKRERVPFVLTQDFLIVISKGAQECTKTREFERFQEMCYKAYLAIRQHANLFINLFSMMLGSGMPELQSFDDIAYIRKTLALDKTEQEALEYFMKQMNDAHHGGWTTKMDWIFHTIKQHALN
Method: PI3K alpha (PI3Kα) activity was determined by measuring the phosphorylation of AKT (Thr308) using an in-cell ELISA assay. MDA-MB-453 (breast carcinoma) cells were obtained from ATCC (ATCC #HTB-131). Growth medium was DMEM (CellGro #CV-10-013-CV) supplemented with 10% fetal bovine serum, 100 IU/mL penicillin, 100 μg/mL streptomycin, and 1×MEM non-essential amino acids. Phosphate buffered saline (PBS) contained 2.7 M NaCl, 54 mM KCl, 86 mM […] (dibasic, anhydrous), and 28 mM […] (monobasic, anhydrous) at pH 7.2. Stimulation mixture (10×) was 1000 ng/mL LONG® R^3 human IGF-1 (Sigma #I1271) diluted in serum-free DMEM medium (CellGro #CV-10-013-CV). Compounds for testing were dissolved and serially diluted in 100% DMSO (total of 10 concentrations), then diluted in serum-free DMEM to 2× final assay concentration. Fixative solution (2×) was 8% formaldehyde (Amresco #M134) diluted in PBS. Permeabilization solution was PBS supplemented with 0.1% Triton X-100. Blocking buffer was obtained from LiCor (LiCor #927-40000). Wash buffer was PBS supplemented with 0.1% Tween-20. Primary antibody solution was rabbit anti-pAKT^T308 monoclonal antibody (Cell Signaling #2965) and mouse anti-total S6 (Santa Cruz #74459) diluted 1:500 and 1:2000, respectively, in the blocking buffer. Secondary antibody solution was IRDye 800CW-conjugated goat anti-rabbit IgG (LiCor #926-32211) and IRDye 680LT-conjugated goat anti-mouse IgG (LiCor #926-68020) diluted 1:1000 and 1:2000, respectively, in the blocking buffer.
MDA-MB-453 cells were subcultured in growth medium and seeded into flat, clear bottom, 96-well plates (Corning #3904) at 40000 cells/well, then incubated overnight in a 5% CO2 incubator at 37° C. Growth medium in plates was replaced with 100 μL/well serum-free DMEM and incubated overnight at 37° C. in a 5% CO2 incubator. Fresh serum-free DMEM (50 μL/well) was added to plates. Compound treatment was performed by adding 50 μL/well of 2× compound mixture to plates and incubating for 1 hr at 37° C. and 5% CO2, after which 11 μL/well of 10× stimulation mixture was added and plates were incubated for 10 min at 37° C. and 5% CO2. Fixation was performed by adding 110 μL/well of 2× fixative solution to the plates and incubating for 20 min at room temperature. Permeabilization was performed by replacing fixation solution with 150 μL/well permeabilization solution and incubating for 10 min at room temperature. Permeabilization was repeated (for a total of 2 times). Permeabilization solution was replaced with 100 μL/well blocking buffer and plates were incubated for 1 hour at room temperature, after which 100 μL/well of primary antibody solution was added and plates were incubated overnight at 4° C. Plates were washed with wash buffer, after which 100 μL/well of secondary antibody solution was added to the plates and incubated in the dark for 1 hr at room temperature. Plates were washed with wash buffer, followed by a wash with PBS. After completely removing PBS, plates were scanned on the Licor Odyssey Imager. Images were quantified using Licor Odyssey application software. IC50 values were determined by curve fitting using a Collaborative Drug Discovery database (www.collaborativedrug.com).

[3] = target: T2, PI3K alpha (Homo sapiens, UniProt P42336); test: Luciferase-based luminescence assay (KinaseGlo), PI3K alpha enzymatic activity; type: biochemical; details: inhibition of enzymatic activity, 25 μM ATP, read-out: IC50 p110α
T2 construct: purchased Invitrogen Corp., Carlsbad, CA, USA
T2 sequence (P42336 whole entry, species assumed): as the sequence (P42336 whole entry) above
T2 sequence (P27986 whole entry partner, species assumed): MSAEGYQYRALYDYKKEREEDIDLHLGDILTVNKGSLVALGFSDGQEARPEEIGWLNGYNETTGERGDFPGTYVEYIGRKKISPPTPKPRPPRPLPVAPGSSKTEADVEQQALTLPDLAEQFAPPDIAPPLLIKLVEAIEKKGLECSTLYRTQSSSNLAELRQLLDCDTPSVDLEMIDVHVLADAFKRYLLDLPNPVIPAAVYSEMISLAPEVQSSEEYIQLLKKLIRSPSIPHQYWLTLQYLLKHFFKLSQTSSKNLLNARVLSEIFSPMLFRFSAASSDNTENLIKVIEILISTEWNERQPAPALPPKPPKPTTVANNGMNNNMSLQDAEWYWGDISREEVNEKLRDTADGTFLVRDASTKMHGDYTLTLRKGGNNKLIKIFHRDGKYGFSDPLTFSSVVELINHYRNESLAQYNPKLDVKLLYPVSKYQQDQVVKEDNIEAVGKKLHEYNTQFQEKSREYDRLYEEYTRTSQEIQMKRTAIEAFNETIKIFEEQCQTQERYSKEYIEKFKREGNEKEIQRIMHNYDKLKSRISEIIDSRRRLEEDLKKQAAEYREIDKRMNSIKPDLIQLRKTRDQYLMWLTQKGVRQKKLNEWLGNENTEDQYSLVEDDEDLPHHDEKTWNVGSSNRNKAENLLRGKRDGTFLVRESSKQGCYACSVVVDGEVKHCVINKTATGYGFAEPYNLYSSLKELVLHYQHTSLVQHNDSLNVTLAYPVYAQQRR
Method: as §1
PI3K alpha and PI3K delta enzymatic activity was determined by measuring the amount of ATP consumed following the kinase reaction using a luciferase-based luminescence assay (KinaseGlo®, Promega Corp., Madison, WI, USA). PI3K enzyme solutions were prepared by diluting PI3K alpha (Invitrogen Corp., Carlsbad, CA, USA) or PI3K delta (Millipore, Billerica, MA, USA) in reaction buffer, to 4× the final assay concentration (final concentrations of enzymes were 1.65 nM and 6.86 nM for PI3K alpha and PI3K delta, respectively). A substrate solution was prepared by mixing PIP2 and ATP in reaction buffer at 2× the final assay concentration (final concentrations were 50 μM and 25 μM for PIP2 and ATP respectively). 2.5 μL each of the compound and kinase mixtures were added to individual wells of white low volume 384-well assay plates and mixed by shaking. The reactions were started by adding 5 μL of substrate mixture per well and shaking. The assay plates were covered and reactions were allowed to proceed for 1 hour (PI3K alpha) or 2 hours (PI3K delta), after which 10 μL of Kinase Glo® reagent was added. The plates were briefly centrifuged and incubated for 10 minutes, after which luminescence was measured using a FlexStation plate reader (Molecular Devices, Sunnyvale, CA, USA). IC50 values were determined by curve fitting using Graphpad Prism software (Graphpad Software, La Jolla, CA, USA).

T1 sequence (P48736 whole entry, species assumed): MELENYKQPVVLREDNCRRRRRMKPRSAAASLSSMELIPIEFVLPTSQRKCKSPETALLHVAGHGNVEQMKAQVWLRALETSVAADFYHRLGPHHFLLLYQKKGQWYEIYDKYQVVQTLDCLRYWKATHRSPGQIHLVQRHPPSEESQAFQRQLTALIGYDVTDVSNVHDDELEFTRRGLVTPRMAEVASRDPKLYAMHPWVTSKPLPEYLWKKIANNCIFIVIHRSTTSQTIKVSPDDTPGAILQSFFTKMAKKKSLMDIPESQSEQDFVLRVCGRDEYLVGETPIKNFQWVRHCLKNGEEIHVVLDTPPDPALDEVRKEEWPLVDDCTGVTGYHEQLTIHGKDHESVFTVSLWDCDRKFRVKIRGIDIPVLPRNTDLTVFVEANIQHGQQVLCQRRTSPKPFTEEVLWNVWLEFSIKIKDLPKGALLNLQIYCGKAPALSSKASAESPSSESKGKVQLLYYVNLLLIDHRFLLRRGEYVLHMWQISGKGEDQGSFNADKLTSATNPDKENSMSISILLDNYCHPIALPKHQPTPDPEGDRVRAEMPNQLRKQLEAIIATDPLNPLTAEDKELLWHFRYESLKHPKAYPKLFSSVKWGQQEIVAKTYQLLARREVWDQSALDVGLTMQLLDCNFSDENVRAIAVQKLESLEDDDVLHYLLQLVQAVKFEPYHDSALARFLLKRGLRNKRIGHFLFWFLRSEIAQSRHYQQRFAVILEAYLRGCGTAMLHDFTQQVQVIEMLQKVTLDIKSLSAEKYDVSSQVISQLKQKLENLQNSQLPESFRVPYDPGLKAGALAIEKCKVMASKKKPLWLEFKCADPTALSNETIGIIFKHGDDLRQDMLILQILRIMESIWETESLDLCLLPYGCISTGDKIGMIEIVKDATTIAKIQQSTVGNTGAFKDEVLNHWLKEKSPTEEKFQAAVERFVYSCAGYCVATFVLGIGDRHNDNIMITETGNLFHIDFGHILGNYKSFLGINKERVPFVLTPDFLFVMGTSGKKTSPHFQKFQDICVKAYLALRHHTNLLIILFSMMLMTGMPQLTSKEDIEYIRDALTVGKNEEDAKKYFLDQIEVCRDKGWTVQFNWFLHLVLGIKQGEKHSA

Structure (SMILES) | IC50 [1] [nM] | IC50 [2] [nM] | IC50 [3] [nM]
CC(C)(Cc1ccccc1)Nc1nc(N2CCOCC2)nc(-n2c(C(F)F)nc3ccccc32)n1 [Compound A14, 4-(2-(difluoromethyl)-1H-benzo[d]imidazol-1-yl)-N-(2-methyl-1-phenylpropan-2-yl)-6-morpholino-1,3,5-triazin-2-amine] | 200 to 500 | > 500 | > 500
CC(C)(Cc1ccccc1F)Nc1nc(N2CCOCC2)nc(-n2c(C(F)F)nc3ccccc32)n1 [Compound A15, 4-(2-(difluoromethyl)-1H-benzo[d]imidazol-1-yl)-N-(1-(2-fluorophenyl)-2-methylpropan-2-yl)-6-morpholino-1,3,5-triazin-2-amine] | > 500 | > 500 | > 500
CC(C)(Cc1ccccc1Cl)Nc1nc(N2CCOCC2)nc(-n2c(C(F)F)nc3ccccc32)n1 [Compound A16, 4-(2-(difluoromethyl)-1H-benzo[d]imidazol-1-yl)-N-(1-(2-chlorophenyl)-2-methylpropan-2-yl)-6-morpholino-1,3,5-triazin-2-amine] | 200 to 500 | > 500 | > 500
Cc1ccccc1CC(C)(C)Nc1nc(N2CCOCC2)nc(-n2c(C(F)F)nc3ccccc32)n1 [Compound A18, 4-(2-(difluoromethyl)-1H-benzo[d]imidazol-1-yl)-N-(2-methyl-1-(o-tolyl)propan-2-yl)-6-morpholino-1,3,5-triazin-2-amine] | 200 to 500 | > 500 | > 500
COc1ccccc1CC(C)(C)Nc1nc(N2CCOCC2)nc(-n2c(C(F)F)nc3ccccc32)n1 [Compound A19, 4-(2-(difluoromethyl)-1H-benzo[d]imidazol-1-yl)-N-(1-(2-methoxyphenyl)-2-methylpropan-2-yl)-6-morpholino-1,3,5-triazin-2-amine] | 200 to 500 | – | > 500
COc1cccc(CC(C)(C)Nc2nc(N3CCOCC3)nc(-n3c(C(F)F)nc4ccccc43)n2)c1 [Compound A21, 4-(2-(difluoromethyl)-1H-benzo[d]imidazol-1-yl)-N-(1-(3-methoxyphenyl)-2-methylpropan-2-yl)-6-morpholino-1,3,5-triazin-2-amine] | > 500 | > 500 | > 500
CC(C)(Cc1ccc(F)cc1)Nc1nc(N2CCOCC2)nc(-n2c(C(F)F)nc3ccccc32)n1 [Compound A22, 4-(2-(difluoromethyl)-1H-benzo[d]imidazol-1-yl)-N-(1-(4-fluorophenyl)-2-methylpropan-2-yl)-6-morpholino-1,3,5-triazin-2-amine] | 200 to 500 | > 500 | > 500

Now from value to compound:

IC50 [1] [nM] | IC50 [2] [nM] | IC50 [3] [nM] | Structure (SMILES)
≤ 100 | – | > 500 | CC(C)(Cc1cccc2ccccc12)Nc1nc(N2CCOCC2)nc(-n2c(C(F)F)nc3ccccc32)n1 [Compound A27, 4-(2-(difluoromethyl)-1H-benzo[d]imidazol-1-yl)-N-(2-methyl-1-(naphthalen-1-yl)propan-2-yl)-6-morpholino-1,3,5-triazin-2-amine]
200 to 500 | – | 200 to 500 | CC(C)(Cc1ccccc1-c1ccncc1)Nc1nc(N2CCOCC2)nc(-n2c(C(F)F)nc3ccccc32)n1 [Compound A33, 4-(2-(difluoromethyl)-1H-benzo[d]imidazol-1-yl)-N-(2-methyl-1-(2-(pyridin-4-yl)phenyl)propan-2-yl)-6-morpholino-1,3,5-triazin-2-amine]
> 500 | > 500 | > 500 | CN1CCC(c2ccccc2CC(C)(C)Nc2nc(N3CCOCC3)nc(-n3c(C(F)F)nc4ccccc43)n2)CC1 [Compound A35, 4-(2-(difluoromethyl)-1H-benzo[d]imidazol-1-yl)-N-(2-methyl-1-(2-(1-methylpiperidin-4-yl)phenyl)propan-2-yl)-6-morpholino-1,3,5-triazin-2-amine]
200 to 500 | > 500 | > 500 | CC(C)(Cc1cccc(F)c1)Nc1nc(N2CCOCC2)nc(-n2c(C(F)F)nc3ccccc32)n1 [Compound A39, 4-(2-(difluoromethyl)-1H-benzo[d]imidazol-1-yl)-N-(1-(3-fluorophenyl)-2-methylpropan-2-yl)-6-morpholino-1,3,5-triazin-2-amine]
200 to 500 | > 500 | 200 to 500 | CC(C)(Cc1ccccc1-c1cccnc1)Nc1nc(N2CCOCC2)nc(-n2c(C(F)F)nc3ccccc32)n1 [Compound A40, 4-(2-(difluoromethyl)-1H-benzo[d]imidazol-1-yl)-N-(2-methyl-1-(2-(pyridin-3-yl)phenyl)propan-2-yl)-6-morpholino-1,3,5-triazin-2-amine]
> 500 | > 500 | > 500 | COc1cc(-c2ccccc2CC(C)(C)Nc2nc(N3CCOCC3)nc(-n3c(C(F)F)nc4ccccc43)n2)ccn1 [Compound A41, 4-(2-(difluoromethyl)-1H-benzo[d]imidazol-1-yl)-N-(1-(2-(2-methoxypyridin-4-yl)phenyl)-2-methylpropan-2-yl)-6-morpholino-1,3,5-triazin-2-amine]
– | > 500 | – | CN1CCC(c2ccccc2CC(C)(C)Nc2nc(N3CCOCC3)nc(-n3c(C(F)F)nc4ccccc43)n2)C1 (stereo not shown) [Compound A75, 4-(2-(difluoromethyl)-1H-benzo[d]imidazol-1-yl)-N-(2-methyl-1-(2-(1-methylpyrrolidin-3-yl)phenyl)propan-2-yl)-6-morpholino-1,3,5-triazin-2-amine]
